From US20130190324A1, “TOPICAL OCULAR DRUG DELIVERY” (The Regents of the University of Colorado, a body corporate, priority 2011, published 2013)
≈ marks a conversion by molar mass, not a printed value. Entries after “also recorded” stand apart in the source; their conditions may differ. Where two headings read alike, the source gives them in different places. Blank lines part the entries; values can stand above or below the molecule they belong to.

Columns and labels:
[1] = Aqueous solubility of GFX and ion pair complex in PBS; format: physicochemical; conditions: phosphate buffer saline (PBS), thermodynamic from solid, phosphate buffer saline pH 7.4, 37° C., mean ± SD, n = 3
[2] = single eye drop, cited from earlier work
[3] = tested on: New Zealand white rabbit cornea; assay: In vitro transport across rabbit cornea (Ussing chamber); format: in vitro ADME; conditions: for transport in presence of OCT competitive inhibitor MPP+: MPP+ 500 μM for GFX-ARG ion pair
Description: (§1) In vitro transport of […], and GFX-LYS were carried out across the New Zealand white rabbit cornea and sclera-choroid-[…]). Rabbit eyes were obtained within 24 hr of harvesting from Pel-Freez Biologicals (Rogers, Ark.) and shipped overnight in Hank's balanced salt solution on wet ice. Eyes were used immediately upon arrival. Eyes were washed with assay buffer and cleaned from the muscle and unwanted tissues. […] The small part of the sclera left with cornea helps in mounting the cornea on Ussing chambers. For isolation of the SCRPE, anterior and posterior parts were separated by a circumferential cut at the limbus. […] After separation of the retina, the eye cup was flattened with small cuts around the globe. […] A circulating water bath was used to maintain the temperature at 37° C. during the transport study. The pH of the assay buffer was maintained at 7.4 using 95% air-5% CO2 aeration which also helps in stirring of bathing solutions. Samples were collected (200 μL) from the receiver side every 30 minute for 3 hr and the lost volume was replaced with fresh assay buffer pre-equilibrated at 37° C. GFX levels were analyzed using an LC-MS/MS assay. […] GFX concentrations in the transport study and ocular tissue samples were analyzed using a validated LC-MS/MS method. […] Chromatographic separation of GFX and the internal standard moxifloxacin was performed on Obelisc C18 column (2.1×10 mm, 3 μm). Elution of analytes was performed using linear gradient elution with mobile phase consisting of 5 mM ammonium formate (pH 3.5) and acetonitrile (pH 3.5) with a flow rate of 300 μl/min and total run time of 6 min.

[4] = tested on: New Zealand white rabbit sclera-choroid-RPE (SCRPE); assay: In vitro transport across rabbit sclera-choroid-RPE (Ussing chamber); format: in vitro ADME; conditions: rabbit SCRPE; for transport in presence of OCT competitive inhibitor MPP+: MPP+ 500 μM for GFX-ARG ion pair
Description: as §1

[5] = In vivo ocular tissue distribution after single topical eye drop; set-up: species or system pigmented rabbits
Description: Male New Zealand Satin rabbits in the weight range of 1.8 to 3 kg were obtained from Western Oregon Rabbit Company (Philmoth, Oreg.). Rabbits were divided into two groups (2 animals each), one group received GFX solution (5 mg/ml) in sterile phosphate buffer saline (PBS), and the other group received the GFX-ARG (1:1) ion pair complex (5.0 mg/ml) solution in PBS. Rabbits were restrained in a rabbit restrainer and allowed to stabilize for 5-10 minutes. A topical eye drop (30 μl) of drug solution was applied in both eyes of rabbits using a positive displacement pipette (Gilson 10-100 μl) and sterile tips. To minimize the runoff of instilled dose, the eyelids were gently closed for few seconds after dosing. The time of dose administered was recorded for each animal. After 1 hr of dosing, blood samples were collected from the marginal ear vein and rabbits were euthanized by intravenous injection of sodium pentobarbitone (150 mg/kg) in the marginal ear vein. […]
GFX content in rabbit ocular tissues was measured from the tissues by acetonitrile based extraction. […]
The aqueous humor and vitreous samples were analyzed directly after dilution, without extraction. […]
GFX concentrations in the transport study and ocular tissue samples were analyzed using a validated LC-MS/MS method. […]

conjunctiva = assay: In vitro transport of GFX prodrugs across conjunctiva; format: in vitro ADME, Rabbit
[6] = tested on: calf sclera-choroid-RPE (SCRPE); assay: In vitro transport of substrate cassette across normoxic and hypoxic calf SCRPE
Text: (§2) Animals used in this study were those that were sacrificed as part of other experiments approved by the Institutional Animal Care Committee of the Colorado State University (Fort Collins) and University of Colorado Anschutz Medical campus. Hypoxic and normoxic calf eyes were obtained from the Department of Physiology, School of Veterinary Medicine, Colorado State University (Fort Collins, Colo.). Briefly, 1 day old male Holstein calves (n=4) were kept in hypobaric hypoxic chambers (PB=445 mm Hg) for 2 weeks. For control experiment, age matched calves (n=4) were kept at ambient altitude (PB=650 mm Hg) and normoxia for two weeks. Hypoxic and normoxic rat eyes were obtained from the Department of Medicine, University of Colorado Anschutz Medical campus (Aurora, Colo.). Sprague Dawley rats (n=4) were maintained in hypobaric hypoxic chambers (PB=380 mm Hg) for 6 weeks and age matched controls were kept at ambient pressure and normoxia.
(§3) In vitro transport studies across hypoxic and control calf cornea and sclera-choroid-RPE (SCRPE) were carried using cassette dosing approach. A cassette of drug transporter substrates, Gly-Sar (PEPT), valacylovir (ATB^0+), MPP^+ (OCT), and phenylacetic acid (MCT) at a concentration of 100 μM each in assay buffer was prepared. Briefly, the calf eyes were harvested immediately after euthanasia and transferred to the laboratory on ice. Upon arrival in the lab, the eyes were washed with assay buffer and cleaned from muscle and unwanted tissues. Anterior and posterior parts were separated by circumferential cut at the limbus. Vitreous was removed and the neural retina was separated from the choroid-RPE by filling the eye cup with assay buffer. The retina afloat in assay buffer was isolated and the eye cup was divided into two pieces (˜1.5×1.5 cm) of sclera-choroid-RPE. Isolated tissues were mounted on modified Ussing chambers (Navicyte, Sparks, Nev.) such that the episcleral side of SCRPE or epithelial side of cornea was facing the donor chamber and retinal side or endothelial side of the cornea was facing the receiver chamber. The chambers were filled with 1.5 ml of assay buffer at 37° C. with (donor side) or without (receiver side) the cocktail of drug transporter substrates. For the study of effect of transporter inhibitors, cocktail mixture (500 μM) of transporter inhibitors was added on both donor and acceptor sides.
(§4) During the transport study, the bathing fluids were maintained at 37° C. using circulating warm water. The pH of the fluids was maintained at pH 7.4 using 95% air-5% CO2 aeration. Samples were collected (200 μL) from receiver side every hour for 6 hours and the removed volume was replaced with fresh assay buffer pre-equilibrated to 37° C. Drug levels were analyzed using a LC-MS/MS assay. Permeation data were corrected for dilution of the receiver concentrations with sample volume replenishment.
(§5) Analyte concentrations in transport study samples were measured using LC-MS/MS method after 5-fold dilution with acetonitrile to reduce the salt concentrations. A cassette analysis method was developed for simultaneous analysis of Gly-Sar, valacylovir, and MPP Phenyl acetic acid was analyzed separately with a negative ionization method and a normal phase separation method. An API-3000 triple quadrupole mass spectrometry (Applied Biosystems, Foster City, Calif., USA) coupled with a PerkinElmer series-200 liquid chromatography (Perkin Elmer, Waltham, Mass., USA) system was used for analysis. Gly-Sar, valacylovir and MPP were separated on Supelco C-5 column (2.1×10 mm, 3 μm) using water containing 0.1% formic acid (A) and acetonitrile:methanol (50:50 v/v) containing 0.1% formic acid (B) as mobile phase. A linear gradient elution at a flow rate of 0.3 ml/min with a total run time of 9 min was employed. Phenyl acetic acid was separated in normal phase separation mode on Obelisc-N silica column (2.1×10 mm, 3 μM) using 5 mM ammonium formate at pH 3.5 (A) and acetonitrile (B) as mobile phase.

calf cornea = assay: In vitro transport of substrate cassette across normoxic and hypoxic calf cornea
Text: as §2, §3, §4, §5

[7] = cited from earlier work

solubility at 24 h [1]: 5.49 mg/mL (≈ 14.6 mM)
solubility (physchem; water): 0.64 mg/mL (≈ 1.7 mM)
solubility (physchem; water for injection): 2.5 mg/mL (≈ 6.66 mM)
Structure (SMILES): COc1c(N2CCNC(C)C2)c(F)cc2c(=O)c(C(=O)O)cn(C3CC3)c12 (stereo not shown) [GFX, gatifloxacin]
reported Tmax ([2]; aqueous humor): 19.8 min
reported Tmax ([2]; cornea): 4.98 min

cumulative % transport / permeability compared with GFX (in words) [3]: significantly improved permeability
transport in presence of OCT competitive inhibitor MPP+ [3]: inhibited significantly
cumulative % transport in presence vs absence of ATB0+ inhibitor α-methyl tryptophan ([3]; inhibitor 500 μM): no significant difference
cumulative % transport / permeability compared with GFX (in words) [4]: significantly improved permeability
transport in presence of OCT competitive inhibitor MPP+ [4]: inhibited significantly
cumulative % transport in presence vs absence of ATB0+ inhibitor α-methyl tryptophan ([4]; inhibitor 500 μM): no significant difference
solubility (physchem; water): 25.5 mg/mL (≈ 48 mM)
solubility (physchem; water for injection): 25.5 mg/mL (≈ 48 mM)
Structure (SMILES): COc1c(N2CCN(C(=O)C(N)CCCNC(=N)N)C(C)C2)c(F)cc2c(=O)c(C(=O)O)cn(C3CC3)c12 (stereo not shown) [GFX-ARG, 7-(4-(2-amino-5-guanidinopentanoyl)-3-methylpiperazin-1-yl)-1-cyclopropyl-6-fluoro-8-methoxy-4-oxo-1,4-dihydroquinoline-3-carboxylic acid]
transport in presence of OCTN inhibitor L-carnitine ([3]; L-carnitine 500 μM): did not show any significant inhibitory effect
transport in presence of OCTN inhibitor L-carnitine ([4]; L-carnitine 500 μM): did not show any significant inhibitory effect
GFX ocular tissue levels compared with GFX alone (in words) ([5]; all ocular tissues, 1 hr after single topical 30 μl eye drop, 5 mg/ml in PBS): higher concentrations of GFX in all ocular tissues; also recorded: enhanced ocular delivery to all ocular tissues

cumulative % transport / permeability compared with GFX (in words) [3]: significantly (p<0.01) higher than GFX
transport in presence of OCT competitive inhibitor MPP+ [3]: significantly inhibited
cumulative % transport / permeability compared with GFX (in words) [4]: significantly (p<0.01) higher than GFX
transport in presence of OCT competitive inhibitor MPP+ [4]: significantly inhibited
cumulative % transport compared with GFX (in words) (conjunctiva): significantly (p<0.01) higher than GFX
transport in presence of OCT competitive inhibitor MPP+ (conjunctiva): significantly inhibited
solubility (physchem; water for injection): 33.3 mg/mL (≈ 72.4 mM)
Structure (SMILES): COc1c(N2CCNC(C)C2)c(F)cc2c(=O)c(C(=O)NCCCN(C)C)cn(C3CC3)c12 (stereo not shown) [GFX-OCT, 1-cyclopropyl-N-(3-(dimethylamino)propyl)-6-fluoro-8-methoxy-7-(3-methylpiperazin-1-yl)-4-oxo-1,4-dihydroquinoline-3-carboxamide]
levels in posterior tissues compared with GFX (in words) ([5]; vitreous humor and CRPE, 1 h after topical eye drop): higher concentrations of GFX in all posterior tissues

Structure (SMILES): CC(C)[C@H](N)C(=O)OCCOCn1cnc2c(=O)[nH]c(N)nc21 [valacylovir]
apparent permeability (Papp) across hypoxic vs normoxic tissue (in words) ([6]; calf SCRPE): significantly higher across normoxic SCRPE than hypoxic SCRPE
transport across hypoxic vs normoxic tissue (in words) ([6]; calf SCRPE, cassette 100 μM): significantly decreased in hypoxic calf SCRPE; also recorded: significantly higher across normoxic calf SCRPE than hypoxic calf SCRPE
decrease in cumulative % transport across hypoxic tissue ([6]; hypoxic vs normoxic calf SCRPE): 61%
apparent permeability (Papp) across hypoxic vs normoxic tissue (in words) (calf cornea; calf cornea): significantly higher across normoxic cornea than hypoxic cornea
transport across hypoxic vs normoxic tissue (in words) (calf cornea; calf cornea, cassette 100 μM): significantly higher across normoxic calf cornea than hypoxic calf cornea
decrease in cumulative % transport across hypoxic tissue (calf cornea; hypoxic vs normoxic calf cornea): 36%
increase in oral bioavailability as compared to parent acyclovir [7]: three to five fold increase
